From patent US20230257396A1, “MACROCYCLES AND THEIR USE” (BLOSSOMHILL THERAPEUTICS, INC., priority 2020, published 2023)

Legend:
Assay in all cases: KINOMEscan kinase binding assay (Eurofins/DiscoveRx), % Ctrl
kinases [1] = target: T1, kinases (Homo sapiens, UniProt P00519, F317I)
T1 construct: purchased Eurofins/DiscoveRx; host or cells: E. coli BL21-derived host (T7 phage display) for most kinases; HEK-293 for the rest
How it was run: (§1)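 Read-out is qPCR of kinase eluted from ligand-coated streptavidin beads after 1 h room-temperature competition with test compound. Values are % Ctrl at the tested concentration, lower meaning tighter binding.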

kinases [2] = target: T2, kinases (Homo sapiens, UniProt P00533)
T2 construct: purchased Eurofins/DiscoveRx; host or cells: E. coli BL21-derived host (T7 phage display) for most kinases; HEK-293 for the rest
How it was run: as §1

kinases [3] = target: T3, kinases (Homo sapiens, UniProt P00533, L861Q)
T3 construct: purchased Eurofins/DiscoveRx; host or cells: E. coli BL21-derived host (T7 phage display) for most kinases; HEK-293 for the rest
How it was run: as §1

kinases [4] = target: T4, kinases (Homo sapiens, UniProt P07949, V804L)
T4 construct: purchased Eurofins/DiscoveRx; host or cells: E. coli BL21-derived host (T7 phage display) for most kinases; HEK-293 for the rest
How it was run: as §1

kinases [5] = target: T5, kinases (Homo sapiens, UniProt P10721)
T5 construct: purchased Eurofins/DiscoveRx; host or cells: E. coli BL21-derived host (T7 phage display) for most kinases; HEK-293 for the rest
How it was run: as §1

kinases [6] = target: T6, kinases (Homo sapiens, UniProt P10721, A829P)
T6 construct: purchased Eurofins/DiscoveRx; host or cells: E. coli BL21-derived host (T7 phage display) for most kinases; HEK-293 for the rest
How it was run: as §1

kinases [7] = target: T7, kinases (Homo sapiens, UniProt P10721, D816V)
T7 construct: purchased Eurofins/DiscoveRx; host or cells: E. coli BL21-derived host (T7 phage display) for most kinases; HEK-293 for the rest
How it was run: as §1

kinases [8] = target: T8, kinases (Homo sapiens, UniProt P10721, V559D)
T8 construct: purchased Eurofins/DiscoveRx; host or cells: E. coli BL21-derived host (T7 phage display) for most kinases; HEK-293 for the rest
How it was run: as §1

kinases [9] = target: T9, kinases (Homo sapiens, UniProt P10721, V559D/V654A)
T9 construct: purchased Eurofins/DiscoveRx; host or cells: E. coli BL21-derived host (T7 phage display) for most kinases; HEK-293 for the rest
How it was run: as §1

kinases [10] = target: T10, kinases (Homo sapiens, UniProt P36888, N841I)
T10 construct: purchased Eurofins/DiscoveRx; host or cells: E. coli BL21-derived host (T7 phage display) for most kinases; HEK-293 for the rest
T10 sequence (P36888 27-993 N841I): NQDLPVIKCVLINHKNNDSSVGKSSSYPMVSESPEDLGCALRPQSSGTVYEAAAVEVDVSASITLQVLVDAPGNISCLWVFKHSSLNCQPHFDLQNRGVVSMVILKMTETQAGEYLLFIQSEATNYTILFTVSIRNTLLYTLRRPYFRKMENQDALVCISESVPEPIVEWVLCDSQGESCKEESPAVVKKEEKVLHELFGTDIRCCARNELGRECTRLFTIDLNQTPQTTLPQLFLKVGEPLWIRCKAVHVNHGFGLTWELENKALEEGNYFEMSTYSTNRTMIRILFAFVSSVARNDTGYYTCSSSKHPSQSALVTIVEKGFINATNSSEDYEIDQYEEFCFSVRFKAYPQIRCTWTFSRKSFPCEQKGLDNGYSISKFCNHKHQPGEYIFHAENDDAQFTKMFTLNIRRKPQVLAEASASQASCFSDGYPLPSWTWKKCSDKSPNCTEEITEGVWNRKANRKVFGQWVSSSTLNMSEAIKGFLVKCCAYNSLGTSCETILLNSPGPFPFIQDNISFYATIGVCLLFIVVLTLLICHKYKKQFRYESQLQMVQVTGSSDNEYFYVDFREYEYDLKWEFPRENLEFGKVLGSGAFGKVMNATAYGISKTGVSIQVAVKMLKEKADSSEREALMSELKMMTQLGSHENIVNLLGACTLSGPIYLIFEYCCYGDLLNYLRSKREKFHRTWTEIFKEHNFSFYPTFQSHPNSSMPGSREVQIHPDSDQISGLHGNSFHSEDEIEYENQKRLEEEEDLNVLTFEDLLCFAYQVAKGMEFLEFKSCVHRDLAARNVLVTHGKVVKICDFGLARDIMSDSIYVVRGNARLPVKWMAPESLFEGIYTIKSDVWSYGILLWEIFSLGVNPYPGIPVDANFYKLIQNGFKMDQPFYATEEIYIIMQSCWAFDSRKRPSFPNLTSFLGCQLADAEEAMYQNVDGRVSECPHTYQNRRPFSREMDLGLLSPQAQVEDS
How it was run: as §1

kinases [11] = target: T11, kinases (Homo sapiens, UniProt P42684)
T11 construct: purchased Eurofins/DiscoveRx; host or cells: E. coli BL21-derived host (T7 phage display) for most kinases; HEK-293 for the rest
How it was run: as §1

[12] = 1 μM; ABL1(F317I)-nonphosphorylated
[13] = 1 μM; ABL1(F317I)-phosphorylated

T8 sequence (P10721 26-976 V559D): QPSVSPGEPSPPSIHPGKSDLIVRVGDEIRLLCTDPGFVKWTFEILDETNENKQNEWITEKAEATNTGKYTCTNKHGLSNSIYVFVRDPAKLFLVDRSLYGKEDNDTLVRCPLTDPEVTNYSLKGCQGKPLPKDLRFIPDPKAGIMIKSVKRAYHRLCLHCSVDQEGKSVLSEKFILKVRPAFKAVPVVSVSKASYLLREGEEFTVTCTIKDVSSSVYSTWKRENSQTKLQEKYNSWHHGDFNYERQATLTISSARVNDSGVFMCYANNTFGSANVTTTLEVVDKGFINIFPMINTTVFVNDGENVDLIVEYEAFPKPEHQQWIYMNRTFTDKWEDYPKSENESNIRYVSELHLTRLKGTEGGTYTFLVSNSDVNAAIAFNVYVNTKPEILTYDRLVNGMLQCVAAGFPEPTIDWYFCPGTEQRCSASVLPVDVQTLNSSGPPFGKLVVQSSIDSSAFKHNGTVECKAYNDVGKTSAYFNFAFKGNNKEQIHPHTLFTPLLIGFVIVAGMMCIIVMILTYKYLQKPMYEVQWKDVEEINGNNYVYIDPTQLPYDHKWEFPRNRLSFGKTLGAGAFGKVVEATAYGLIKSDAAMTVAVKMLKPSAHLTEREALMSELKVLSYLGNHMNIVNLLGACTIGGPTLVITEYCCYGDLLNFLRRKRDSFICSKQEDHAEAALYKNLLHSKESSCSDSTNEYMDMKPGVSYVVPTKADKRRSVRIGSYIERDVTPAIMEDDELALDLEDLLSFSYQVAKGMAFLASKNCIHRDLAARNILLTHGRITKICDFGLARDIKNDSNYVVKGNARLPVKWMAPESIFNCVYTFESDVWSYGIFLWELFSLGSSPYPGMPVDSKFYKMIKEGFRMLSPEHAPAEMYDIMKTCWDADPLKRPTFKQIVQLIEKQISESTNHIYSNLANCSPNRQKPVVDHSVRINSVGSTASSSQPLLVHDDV
T1 sequence (P00519 whole entry F317I): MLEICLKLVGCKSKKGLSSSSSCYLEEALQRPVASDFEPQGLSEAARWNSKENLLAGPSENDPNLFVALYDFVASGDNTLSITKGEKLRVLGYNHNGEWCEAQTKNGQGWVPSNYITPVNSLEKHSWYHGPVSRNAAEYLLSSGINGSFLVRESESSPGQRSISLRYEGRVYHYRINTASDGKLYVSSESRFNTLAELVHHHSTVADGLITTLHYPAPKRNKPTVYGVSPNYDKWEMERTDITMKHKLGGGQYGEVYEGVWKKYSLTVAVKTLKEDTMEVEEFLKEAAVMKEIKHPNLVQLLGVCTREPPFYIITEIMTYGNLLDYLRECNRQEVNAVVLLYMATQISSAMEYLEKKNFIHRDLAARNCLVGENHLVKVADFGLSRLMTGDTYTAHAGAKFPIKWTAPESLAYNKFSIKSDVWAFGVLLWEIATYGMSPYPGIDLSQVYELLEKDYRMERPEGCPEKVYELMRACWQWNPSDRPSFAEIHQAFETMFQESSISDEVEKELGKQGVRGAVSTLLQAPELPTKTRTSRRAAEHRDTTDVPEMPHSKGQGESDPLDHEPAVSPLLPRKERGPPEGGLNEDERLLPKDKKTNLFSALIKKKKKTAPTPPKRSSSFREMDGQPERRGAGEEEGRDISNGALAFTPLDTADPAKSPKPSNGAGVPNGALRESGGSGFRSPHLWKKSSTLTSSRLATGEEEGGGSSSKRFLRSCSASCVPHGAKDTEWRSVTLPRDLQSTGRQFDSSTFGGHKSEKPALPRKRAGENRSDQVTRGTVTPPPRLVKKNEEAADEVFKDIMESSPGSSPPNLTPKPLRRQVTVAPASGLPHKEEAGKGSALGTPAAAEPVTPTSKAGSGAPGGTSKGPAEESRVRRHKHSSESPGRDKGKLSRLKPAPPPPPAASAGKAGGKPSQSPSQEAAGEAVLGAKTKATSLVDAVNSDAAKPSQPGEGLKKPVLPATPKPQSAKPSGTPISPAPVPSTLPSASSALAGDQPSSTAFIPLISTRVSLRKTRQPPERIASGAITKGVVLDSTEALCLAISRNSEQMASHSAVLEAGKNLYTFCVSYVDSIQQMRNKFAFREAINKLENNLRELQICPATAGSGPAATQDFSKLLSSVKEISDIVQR
T4 sequence (P07949 29-1114 V804L): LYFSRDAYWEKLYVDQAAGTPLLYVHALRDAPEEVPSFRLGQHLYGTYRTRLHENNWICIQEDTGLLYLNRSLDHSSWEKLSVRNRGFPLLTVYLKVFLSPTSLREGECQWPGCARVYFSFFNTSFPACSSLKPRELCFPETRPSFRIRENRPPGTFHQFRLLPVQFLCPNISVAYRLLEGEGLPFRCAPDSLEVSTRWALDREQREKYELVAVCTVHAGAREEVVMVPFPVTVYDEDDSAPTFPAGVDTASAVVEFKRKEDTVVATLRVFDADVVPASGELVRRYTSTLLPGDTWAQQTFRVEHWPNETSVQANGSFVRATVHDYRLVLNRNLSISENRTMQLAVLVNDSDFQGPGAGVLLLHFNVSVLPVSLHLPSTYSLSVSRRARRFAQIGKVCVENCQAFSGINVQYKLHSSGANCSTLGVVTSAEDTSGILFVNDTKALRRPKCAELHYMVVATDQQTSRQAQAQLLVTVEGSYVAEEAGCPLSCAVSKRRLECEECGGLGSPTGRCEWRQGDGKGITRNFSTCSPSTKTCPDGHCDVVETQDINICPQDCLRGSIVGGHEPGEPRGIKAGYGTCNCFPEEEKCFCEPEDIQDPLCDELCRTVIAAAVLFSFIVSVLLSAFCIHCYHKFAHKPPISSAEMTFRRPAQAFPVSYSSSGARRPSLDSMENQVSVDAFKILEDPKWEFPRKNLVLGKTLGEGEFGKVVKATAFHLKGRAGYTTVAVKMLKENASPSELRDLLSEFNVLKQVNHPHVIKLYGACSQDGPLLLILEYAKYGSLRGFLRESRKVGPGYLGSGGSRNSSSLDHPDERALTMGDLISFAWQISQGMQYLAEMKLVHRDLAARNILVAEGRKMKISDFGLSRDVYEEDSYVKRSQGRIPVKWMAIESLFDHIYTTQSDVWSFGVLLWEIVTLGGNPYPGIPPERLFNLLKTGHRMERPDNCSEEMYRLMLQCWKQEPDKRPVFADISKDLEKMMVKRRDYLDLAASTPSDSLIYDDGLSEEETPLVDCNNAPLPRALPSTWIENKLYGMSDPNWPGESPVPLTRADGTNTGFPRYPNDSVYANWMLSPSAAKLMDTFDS
T7 sequence (P10721 26-976 D816V): as the sequence (P10721 26-976 V559D) above, with D534V, D791V counted along it
T5 sequence (P10721 26-976): as the sequence (P10721 26-976 V559D) above, with D534V counted along it
T9 sequence (P10721 26-976 V559D/V654A): as the sequence (P10721 26-976 V559D) above, with V629A counted along it
T6 sequence (P10721 26-976 A829P): as the sequence (P10721 26-976 V559D) above, with D534V, A804P counted along it
T11 sequence (P42684 whole entry): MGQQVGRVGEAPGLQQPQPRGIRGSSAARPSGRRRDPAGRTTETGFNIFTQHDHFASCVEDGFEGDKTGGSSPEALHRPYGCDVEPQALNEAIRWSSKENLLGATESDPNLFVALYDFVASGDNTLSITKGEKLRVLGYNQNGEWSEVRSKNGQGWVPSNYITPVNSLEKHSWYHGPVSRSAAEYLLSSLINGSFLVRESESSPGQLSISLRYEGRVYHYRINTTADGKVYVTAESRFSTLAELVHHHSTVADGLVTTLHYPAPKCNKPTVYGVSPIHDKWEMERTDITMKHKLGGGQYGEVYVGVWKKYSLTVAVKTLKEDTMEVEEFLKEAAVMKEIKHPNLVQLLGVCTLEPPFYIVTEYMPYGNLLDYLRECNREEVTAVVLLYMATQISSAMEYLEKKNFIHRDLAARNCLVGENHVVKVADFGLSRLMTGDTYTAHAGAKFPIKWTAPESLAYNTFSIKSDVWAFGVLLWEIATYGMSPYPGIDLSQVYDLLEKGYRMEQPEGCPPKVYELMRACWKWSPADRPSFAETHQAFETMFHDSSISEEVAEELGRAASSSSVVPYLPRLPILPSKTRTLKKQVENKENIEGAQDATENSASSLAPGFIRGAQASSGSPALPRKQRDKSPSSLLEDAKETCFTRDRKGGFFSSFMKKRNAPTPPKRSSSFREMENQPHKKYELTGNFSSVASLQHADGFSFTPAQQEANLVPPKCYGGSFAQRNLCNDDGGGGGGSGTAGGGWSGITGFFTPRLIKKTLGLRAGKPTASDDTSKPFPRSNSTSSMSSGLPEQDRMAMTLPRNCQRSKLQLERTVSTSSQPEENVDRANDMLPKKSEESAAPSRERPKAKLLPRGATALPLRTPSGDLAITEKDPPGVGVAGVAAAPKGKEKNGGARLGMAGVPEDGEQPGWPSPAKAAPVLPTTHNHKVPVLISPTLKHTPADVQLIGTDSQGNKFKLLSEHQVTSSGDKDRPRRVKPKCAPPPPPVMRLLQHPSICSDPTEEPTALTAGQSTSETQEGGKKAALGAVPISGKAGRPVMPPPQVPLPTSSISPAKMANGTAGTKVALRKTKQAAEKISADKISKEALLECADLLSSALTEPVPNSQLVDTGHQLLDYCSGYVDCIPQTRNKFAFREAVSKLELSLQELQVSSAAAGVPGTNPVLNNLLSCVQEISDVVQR

Compound	% Ctrl, ABL1(F317I)-nonphosphorylated (kinases [1]; [12])	% Ctrl, ABL1(F317I)-phosphorylated (kinases [1]; [13])	% Ctrl, EGFR (kinases [2]; 1 μM; EGFR)	% Ctrl, EGFR(L861Q) (kinases [3]; 1 μM; EGFR(L861Q))	% Ctrl, RET(V804L) (kinases [4]; 1 μM; RET(V804L))	% Ctrl, KIT (kinases [5]; 1 μM; KIT)	% Ctrl, KIT-autoinhibited (kinases [5]; 1 μM; KIT-autoinhibited)	% Ctrl, KIT(A829P) (kinases [6]; 1 μM; KIT(A829P))	% Ctrl, KIT(D816V) (kinases [7]; 1 μM; KIT(D816V))	% Ctrl, KIT(V559D) (kinases [8]; 1 μM; KIT(V559D))	% Ctrl, KIT(V559D, V654A) (kinases [9]; 1 μM; KIT(V559D, V654A))	% Ctrl, FLT3(N841I) (kinases [10]; 1 μM; FLT3(N841I))	% Ctrl, ABL2 (kinases [11]; 1 μM; ABL2)	also measured
Cc1cc2c([nH]1)/C=C1\C(=O)Nc3cc(Cl)c(cc31)OCCO[C@@H](C(=O)N[C@@H]1CCNC1)CN(C)C2=O [Ex. 136, [7R,16a(17)Z]-19-chloro-2,5-dimethyl-4,16-dioxo-N-[(3R)-pyrrolidin-3-yl]-4,5,6,7,9,10,15,16-octahydro-1H-12,14-(ethanediylidene)dipyrrolo[3,2-i:3′,4′-l][1,4,7]dioxazacyclopentadecine-7-carboxamide]	78 % Ctrl	66 % Ctrl	98 % Ctrl	95 % Ctrl	50 % Ctrl	49 % Ctrl	83 % Ctrl	64 % Ctrl	36 % Ctrl	36 % Ctrl	54 % Ctrl	14 % Ctrl	77 % Ctrl	
Cc1cc2c([nH]1)/C=C1\C(=O)Nc3cnc(cc31)-c1cn[nH]c1CNCCN(C)C2=O [Ex. 55, [3a(4)Z]-6,9-dimethyl-9,10,11,12,13,14-hexahydro-17,1-(azenometheno)pyrazolo[4,3-m]dipyrrolo[3,2-f:3′,4′-i][1,4]diazacyclopentadecine-3,8(2,5H)-dione]														% Ctrl, ABL1(F317I)-nonphosphorylated (kinases [1]; target ABL1(F317I)-nonphosphorylated; 1 μM): 66 % Ctrl; % Ctrl, ABL1(F317I)-phosphorylated (kinases [1]; target ABL1(F317I)-phosphorylated; 1 μM): 41 % Ctrl; % Ctrl, EGFR (kinases [2]; target EGFR; 1 μM): 59 % Ctrl; % Ctrl, EGFR(L861Q) (kinases [3]; target EGFR(L861Q); 1 μM): 58 % Ctrl; % Ctrl, RET(V804L) (kinases [4]; target RET(V804L); 1 μM): 0.3 % Ctrl; % Ctrl, KIT-autoinhibited (kinases [5]; target KIT-autoinhibited; 1 μM): 39 % Ctrl; % Ctrl, KIT (kinases [5]; target KIT; 1 μM): 74 % Ctrl; % Ctrl, KIT(A829P) (kinases [6]; target KIT(A829P); 1 μM): 39 % Ctrl; % Ctrl, KIT(D816V) (kinases [7]; target KIT(D816V); 1 μM): 1.3 % Ctrl; % Ctrl, KIT(V559D) (kinases [8]; target KIT(V559D); 1 μM): 55 % Ctrl; % Ctrl, KIT(V559D, V654A) (kinases [9]; target KIT(V559D, V654A); 1 μM): 22 % Ctrl; % Ctrl, FLT3(N841I) (kinases [10]; target FLT3(N841I); 1 μM): 0 % Ctrl; % Ctrl, ABL2 (kinases [11]; target ABL2; 1 μM): 58 % Ctrl
CN1CCOc2cc3c(cc2Cl)NC(=O)/C3=C\c2[nH]ccc2C(=O)N(C)CC1 [Ex. 164, [16a(17)Z]-19-chloro-2,5,8-trimethyl-5,6,7,8,9,10-hexahydro-12,14-(ethanediylidene)dipyrrolo[3,2-i:3′,4′-l][1,4,7]oxadiazacyclopentadecine-4,16(1H,15H)-dione]														% Ctrl, ABL1(F317I)-nonphosphorylated (kinases [1]; 1 μM; target ABL1(F317I)-nonphosphorylated): 5.7 % Ctrl; % Ctrl, ABL1(F317I)-phosphorylated (kinases [1]; 1 μM; target ABL1(F317I)-phosphorylated): 6.7 % Ctrl; % Ctrl, EGFR (kinases [2]; 1 μM; target EGFR): 95 % Ctrl; % Ctrl, EGFR(L861Q) (kinases [3]; 1 μM; target EGFR(L861Q)): 63 % Ctrl; % Ctrl, RET(V804L) (kinases [4]; 1 μM; target RET(V804L)): 1.2 % Ctrl; % Ctrl, KIT (kinases [5]; 1 μM; target KIT): 18 % Ctrl; % Ctrl, KIT-autoinhibited (kinases [5]; 1 μM; target KIT-autoinhibited): 81 % Ctrl; % Ctrl, KIT(A829P) (kinases [6]; 1 μM; target KIT(A829P)): 33 % Ctrl; % Ctrl, KIT(D816V) (kinases [7]; 1 μM; target KIT(D816V)): 3.3 % Ctrl; % Ctrl, KIT(V559D) (kinases [8]; 1 μM; target KIT(V559D)): 6.9 % Ctrl; % Ctrl, KIT(V559D, V654A) (kinases [9]; 1 μM; target KIT(V559D, V654A)): 27 % Ctrl; % Ctrl, FLT3(N841I) (kinases [10]; 1 μM; target FLT3(N841I)): 0 % Ctrl; % Ctrl, ABL2 (kinases [11]; 1 μM; target ABL2): 2.3 % Ctrl
Cc1cc2c([nH]1)/C=C1\C(=O)Nc3ccc(nc31)-c1ccccc1OCCCNC2=O [Ex.22, [3a(4)Z]-6-methyl-9,10,11,12-tetrahydro-1,18-(ethanediylidene)dipyrrolo[3,2-g:3′,4′-j][1,5,12]benzoxadiazacyclopentadecine-3,8(2H,5H)-dione]	88 % Ctrl	100 % Ctrl	64 % Ctrl	87 % Ctrl	98 % Ctrl	100 % Ctrl	100 % Ctrl	100 % Ctrl	96 % Ctrl	96 % Ctrl	100 % Ctrl	65 % Ctrl	95 % Ctrl	

Continued, in another order:

% Ctrl, ABL1(F317I)-nonphosphorylated (kinases [1]; [12])	% Ctrl, ABL1(F317I)-phosphorylated (kinases [1]; [13])	% Ctrl, EGFR (kinases [2]; 1 μM; EGFR)	% Ctrl, EGFR(L861Q) (kinases [3]; 1 μM; EGFR(L861Q))	% Ctrl, RET(V804L) (kinases [4]; 1 μM; RET(V804L))	% Ctrl, KIT (kinases [5]; 1 μM; KIT)	% Ctrl, KIT-autoinhibited (kinases [5]; 1 μM; KIT-autoinhibited)	% Ctrl, KIT(A829P) (kinases [6]; 1 μM; KIT(A829P))	% Ctrl, KIT(D816V) (kinases [7]; 1 μM; KIT(D816V))	% Ctrl, KIT(V559D) (kinases [8]; 1 μM; KIT(V559D))	% Ctrl, KIT(V559D, V654A) (kinases [9]; 1 μM; KIT(V559D, V654A))	% Ctrl, FLT3(N841I) (kinases [10]; 1 μM; FLT3(N841I))	% Ctrl, ABL2 (kinases [11]; 1 μM; ABL2)	Compound	also measured
100 % Ctrl	55 % Ctrl	91 % Ctrl	100 % Ctrl	56 % Ctrl	98 % Ctrl	97 % Ctrl	86 % Ctrl	84 % Ctrl	93 % Ctrl	100 % Ctrl	36 % Ctrl	91 % Ctrl	Cc1cc2c([nH]1)/C=C1\C(=O)Nc3ccc(cc31)-c1c(noc1C)COCCN(C)C2=O [Ex. 128, [3a(4)Z]-6,9,16-trimethyl-1,11-dihydro-2H,13H-1,17-(ethanediylidene)[1,4]oxazolo[4,3-m]dipyrrolo[3,2-f:3′,4′-i][1,4]oxazacyclopentadecine-3,8(5H,9H)-dione]	
0 % Ctrl	0.75 % Ctrl	61 % Ctrl	77 % Ctrl	0 % Ctrl	42 % Ctrl	95 % Ctrl	2.6 % Ctrl	0.5 % Ctrl	35 % Ctrl	6.7 % Ctrl	0 % Ctrl	2.2 % Ctrl	Cc1cc2c([nH]1)/C=C1\C(=O)Nc3ccc(cc31)-c1cnn(C)c1CNCCN(C)C2=O [Ex. 125, [3a(4)Z]-6,9,14-trimethyl-9,10,11,12,13,14-hexahydro-1,17-(ethanediylidene)pyrazolo[4,3-m]dipyrrolo[3,2-f:3′,4′-i][1,4]diazacyclopentadecine-3,8(2H,5H)-dione]	
